Data published in US12030841B2, “Honokiol crystal forms, amorphous form and preparation thereof” (Chengdu Jinrui Foundation Biotech Co., Ltd., priority 2020, dated 2024).
Converted amounts (≈) assume the structure as drawn.

Legend:
[1] = Solubility test in PBS (saturated solution, HPLC external standard); format: physicochemical; details: shaking at 37 °C for 4 h, supernatant by HPLC
Description: Since the solubility of the drug directly affects the dissolution and oral bioavailability of the drug preparation, the inventor investigated the solubility of the honokiol crystal forms A, B and C in PBS. Preparing respective saturated solutions of the honokiol crystal forms A, B and C, shaking at 37 °C for 4 h, and centrifuging and transferring the supernatant into a high performance liquid chromatograph. At the same time, preparing a standard solution of the honokiol (source: China Institutes for Food and Drug Control, Batch No.: 110730-201915, ID: EH2H-BMTW), and using the external standard method for quantification.

[2] = Stress tests (high temperature, high humidity, high-light irradiation), related substances by HPLC; format: physicochemical; details: for purity after the high humidity test: high humidity (relative humidity 92.5%, 25° C.); for purity after the high temperature test: high temperature (60° C.); for purity after intense light / high-light irradiation test: high-light irradiation (illuminance 45001×+5001×)
Description: Treating the honokiol crystal forms A, B and C under high temperature (60° C.), high humidity (relative humidity 92.5%, 25° C.) and high-light irradiation (illuminance 45001×+5001×), respectively, diluting with methanol, and investigating the changes of related substances through testing with HPLC.

Structure (SMILES)	solubility at 4 h ([1]; PBS, 37 °C, aqueous buffer, thermodynamic from solid) [µg/mL]	purity before the stress test [2] [%]	purity after the high humidity test [2] [%]	purity after the high temperature test [2] [%]	purity after intense light / high-light irradiation test [2] [%]	solubility [1] [µg/mL]
C=CCc1ccc(O)c(-c2ccc(O)c(CC=C)c2)c1 [honokiol crystal form B, 3′,5-di-2-propenyl-1,1′-biphenyl-2,4′-diphenol]	43.7 (≈ 164 µM)	99.88	99.70	99.70	99.60	–
C=CCc1ccc(O)c(-c2ccc(O)c(CC=C)c2)c1 [honokiol crystal form C, 3′,5-di-2-propenyl-1,1′-biphenyl-2,4′-diphenol]	–	99.86	99.59	99.36	99.31	48.12 (≈ 181 µM)
C=CCc1ccc(O)c(-c2ccc(O)c(CC=C)c2)c1 [honokiol crystal form A, 3′,5-di-2-propenyl-1,1′-biphenyl-2,4′-diphenol]	–	99.83	99.67	99.63	99.64	41.35 (≈ 155 µM)
